# Measurements reported in patent US20110263539A1, “SHIP 1 MODULATOR COMPOUNDS” (THE UNIVERSITY OF BRITISH COLUMBIA, priority 2006, published 2011).
# Tests used:
# Mast cells = assay: Stimulation of mast cells by FcεRI crosslinking (Assay 4); assay type: cell-based; details: anti-DNP IgE, DNP-HSA
# Method: Assay 4) Stimulation of mast cells by FcåRI crosslinking. Mast cells were pre-loaded overnight in BMMC medium lacking IL-3 with 0.1 μg/ml anti-DNP IgE (SPE-7, Sigma, Oakville, Ont). For calcium flux measurements, cells were incubated with 2 μM fura 2-acetoxymethyl ester (Molecular Probes, Eugene, Oreg.) in Tyrode's buffer at 23° C. for 45 min. Cells were then washed and incubated in the presence of the test compound 30 min prior to stimulation with the indicated concentration of DNP-human serum albumin (DNP-HSA). Calcium influx was monitored by spectrofluorometry as described previously. For analysis of intracellular signaling, cells were pre-loaded with anti-DNP IgE as above, pre-treated with the test compound for 30 min at 37° C. and stimulated with 20 ng/ml DNP-HSA for 5 min. Total cell lysates were then prepared and analyzed for phospho-PKB, phospho-p38^MAPK, phospho-MAPK, Grb-2 (Cell Signalling, Mississauga, Ont) and SHIP^6 by immunoblot analysis.
# [1] = Initial toxicology studies; assay type: in vivo; details: data not shown
# Excerpt: A novel paradigm for inhibiting PI3K signaling through activation of the phosphatases that negatively regulate this pathway is provided. SHIP is a particularly good target for immune/hematopoietic disorders because of its restricted expression to hematopoietic cells. Because the relative activity of phosphatases present in a cell will influence the efficacy of kinase inhibitors, as discussed by Knight and Shokat, SHIP agonists may also be used to potentiate the activation of PI3K inhibitors and promote tissue targeting of PI3K inhibitors to the ematopoietic/immune cell compartment.
# MM cell lines = assay: In vitro Multiple Myeloma (MM) assay (Assay 7); assay type: cell-based; on Assay Number 7: In vitro Multiple Myeloma (MM) assay: key: a ‘+’ indicates a positive result for desired activity; a ‘−’ indicates a negative result for desired activity
# Method: Assay 7) In vitro Multiple Myeloma (MM) assay. The ability of SHIP activators to reduce tumor cell survival was assessed in MM cell lines treated with the test compound. The lines OPM1, OPM2, MM.1S and RPMI 8226 were plated at a density of 1×10^5 cells/mL in 200 μL of medium with various concentrations of the test compound, and viable cell numbers were determined on day 3 and day 5 by trypan blue exclusion. The lines RPMI 8226 and U266 were plated at a density of 1×10^6 cells/mL in 250 μL of medium with various concentrations of the test compound. At day 4, the medium of each culture was replaced by fresh medium containing the same concentration of test compound. At day 7, the viable cell number of each culture was determined by trypan blue exclusion.
# MM cell lines were cultured in 96 well plates seeded with 3×10^4 cells suspended in 200 μL of medium along with various concentrations of test compound (and associated cyclodextran vehicle control), with LY294002 serving as a positive control in the experiments. After 24-48 hrs of culture, […] of [3H]-thymidine (GE Healthcare, Baie D'Urfe, Canada) being added for the final 8 hours. Cells were harvested and DNA associated radioactivity was measured via liquid scintillation counting using a Wallac Microbeta counter (Perkin-Elmer; Boston, Mass.).
# The ability of SHIP activators to reduce tumor cell survival was assessed in multiple myeloma (MM) cell lines treated with Compound 100 or AQX-016A. The lines OPM1, OPM2, MM.1S and RPMI 8226 were plated at a density of 1×10^5 cells/mL in 200 μL of medium with various concentrations of Compound 100, and viable cell numbers were determined on day 3 and day 5 by trypan blue exclusion. The lines RPMI 8226 and U266 were plated at a density of 1×10^6 cells/mL in 250 μL of medium with various concentrations of AQX-016A. At day 4, the medium of each culture was replaced by fresh medium containing the same concentration of AQX-016A. At day 7, the viable cell number of each culture was determined by trypan blue exclusion. Experiments were performed in triplicate.
# Proliferation (DNA synthesis) assays. Proliferation was measured by measuring incorporation of [^3H]-thymidine into cells. MM cell lines were cultured in 96 well plates seeded with 3×10^4 cells suspended in 200 μL, of medium along with various concentrations of Compound 100 or AQX-016A (and associated cyclodextran vehicle control), with LY294002 serving as a positive control in the indicated experiments. After 24-48 hrs of culture, 1 μCi of [^3H]-thymidine (GE Healthcare, Baie D'Urfe, Canada) being added for the final 8 hours. Plates were frozen, which also aided in cell lysis, to terminate the experiments. Cells were then harvested onto glass fibre filters using an automatic cell harvester (TomTech; Orange, Conn.) and DNA associated radioactivity was measured via liquid scintillation counting using a Wallac Microbeta counter (Perkin-Elmer; Boston, Mass.). Wells were set up in triplicate and data is expressed as mean+/−SEM.
# [2] = test system: luciferase expressing OPM2 cells; assay: In vivo Multiple Myeloma (MM) assay (Assay 8); design: species or system Mice; details: 50 mg/kg every 3 days, subcutaneous oil depot
# Method: Assay 8) In vivo Multiple Myeloma (MM) assay. Mice were inoculated with at two sites each with 3×10^6 luciferase expressing OPM2 cells suspended in 50 μL of growth medium and 50 μL of Matrigel basement membrane matrix (Becton Dickenson; Bedford, Mass.). Tumors were injected subcutaneously in the upper and lower flanks of the mice and allowed to establish for 2 weeks. After 2 weeks, a test compound or control vehicle was administered in a subcutaneous oil depot at a dose of 50 mg/kg every 3 days.
# Tumors were measured using bioluminescence imaging on the Xenogen IVIS 200. Mice received intra-peritoneal injections of 200 μL of D-luciferin at 3.75 mg/mL in sterile PBS. Mice were then anesthetized with isofluorane and imaged 15 minutes post-injection of luciferin. Quantification of tumor size was performed using the Living Image™ software.
# MM Xenograft murine model. Mice were inoculated with at two sites each with 3×10^6 luciferase expressing OPM2 cells suspended in 50 μL of growth medium and 50 μL of Matrigel basement membrane matrix (Becton Dickenson; Bedford, Mass.). Tumors were injected subcutaneously in the upper and lower flanks of the mice and allowed to establish for 2 weeks. […]
# Tumors were measured using bioluminescence imaging on the Xenogen IVIS 200. […] Quantification of tumor size was performed using the Living Image™ software. […]
# J774.1a macrophage cells = assay: Macrophage TNF-α NO assay (Assay 3); assay type: cell-based; details: 10 μg/ml test compound, LPS, 24 hr, Griess reagent; further: key: a ‘+’ indicates a positive result for desired activity; a ‘−’ indicates a negative result for desired activity
# Method: Assay 3) Macrophage TNF-α NO assay. J774.1a macrophage cells were treated with 10 μg/ml of test compound dissolved in solvent for 40 minutes prior to the addition of LPS. Culture supernatants were collected after 24 hr. for determination of NO concentration using the Griess reagent.
compound,measurement,setting,value
Cc1cc(O)cc2c1[C@]1(C)CCC3C(C)(C)CCC[C@]3(C)[C@H]1C2 (stereo partly drawn) [Compound 100],Assay Number 4: Stimulation of mast cells by FcεRI crosslinking,Mast cells,+
same,peripheral blood cell counts or bone marrow progenitor numbers,[1],do not significantly affect
same,Assay Number 7: In vitro Multiple Myeloma (MM) assay,MM cell lines,+
same,MM proliferation,"MM cell lines; viable cell numbers, trypan blue exclusion",inhibits MM proliferation at lower concentrations than AQX-016A
same,Assay Number 8: In vivo Multiple Myeloma (MM) assay,[2],+
same,Assay Number 3: Macrophage NO,J774.1a macrophage cells,+
